# Target: PKBα (Homo sapiens, UniProt P31749)
# Experiment: PKB kinase assay (P33-labeled ATP, peptide substrate, filter plate)
# Assay type: biochemical
# Settings: PKBα enzyme (full length or kinase domain with pleckstrin domain deleted)
# Description: The kinase assay for evaluating PKB activity comprises active PKB enzymes, a PKB specific substrate, and P^33-labeled ATP. […] The phosphorylated substrate was captured by a phosphocellulose membrane filter plate (MLLIPORE) and measured by a Wallac Microbeta liquid scintillation counter (Perkin Elmer).
# PKBα, sequence (P31749 118-480 limits assumed): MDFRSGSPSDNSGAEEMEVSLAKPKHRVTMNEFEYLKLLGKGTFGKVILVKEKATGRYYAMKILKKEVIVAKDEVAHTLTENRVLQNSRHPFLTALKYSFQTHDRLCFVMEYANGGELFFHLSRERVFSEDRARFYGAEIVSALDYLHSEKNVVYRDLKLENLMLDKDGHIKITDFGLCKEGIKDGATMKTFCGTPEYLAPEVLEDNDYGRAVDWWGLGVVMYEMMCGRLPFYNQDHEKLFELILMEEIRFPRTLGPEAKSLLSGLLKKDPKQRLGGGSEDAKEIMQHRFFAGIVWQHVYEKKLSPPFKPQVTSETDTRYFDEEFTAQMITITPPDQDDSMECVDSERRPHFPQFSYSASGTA
row,SMILES,IC50 [nM]
1,"C[C@@H](c1ccc(C(F)(F)F)cc1)[C@H](N)CNc1ncc(-c2cnc3c(c2)CC(=O)N3)s1 [Example 228, 5-(2-((2S,3S)-2-amino-3-(4-(trifluoromethyl)phenyl)butylamino)thiazol-5-yl)-1H-pyrrolo[2,3-b]pyridin-2(3H)-one]",50 to 1000
2,"N[C@H](CNc1ncc(-c2ccc3c(c2)CC(=O)N3)s1)Cc1ccc(C(F)(F)F)c(O)c1 [Example 209, 5-(2-((S)-2-amino-3-(3-hydroxy-4-(trifluoromethyl)phenyl)propylamino)thiazol-5-yl)indolin-2-one]",50 to 1000
3,"Cn1c(=O)[nH]c2ccc(-c3cnc(NC[C@@H](N)Cc4ccc(C(F)(F)F)c(F)c4)s3)cc21 [Example 184, 6-(2-((S)-2-amino-3-(3-fluoro-4-(trifluoromethyl)phenyl)propylamino)thiazol-5-yl)-1-methyl-1H-benzo[d]imidazol-2(3H)-one]",< 50
4,"N[C@H](CNc1nc(CO)c(-c2ccc3cnccc3c2)s1)Cc1ccc(C(F)(F)F)cc1 [Example 10, (2-((S)-2-amino-3-(4-(trifluoromethyl)phenyl)propylamino)-5-(isoquinolin-6-yl)thiazol-4-yl)methanol]",< 50
5,"N[C@H](CNc1ncc(-c2ccc3[nH]c(=O)oc3c2)s1)Cc1c[nH]c2ccccc12 [Example 39, 6-(2-((S)-2-amino-3-(1H-indol-3-yl)propylamino)thiazol-5-yl)benzo[d]oxazol-2(3H)-one]",50 to 1000
6,"C[C@@H](c1ccccc1)[C@H](N)CNc1ncc(-c2ccc3cnccc3c2)s1 [Example 91, N-((2S,3S)-2-Amino-3-phenylbutyl)-5-(isoquinolin-6-yl)thiazol-2-amine]",50 to 1000
7,COCOC(c1ccc(C(F)(F)F)cc1)C(N)CNc1ncc(-c2ccc3c(c2)CC(=O)N3)s1 (stereo not drawn) [Example 244],1000 to 10000
8,"N[C@H](CNc1ncc(-c2ccc3[nH]c(=O)oc3c2)s1)Cc1ccc(C(F)(F)F)cc1 [Example 40, 6-(2-((S)-2-amino-3-(4-(trifluoromethyl)phenyl)propylamino)thiazol-5-yl)benzo[d]oxazol-2(3H)-one]",< 50
9,"N[C@@H](Cc1ccc(C(F)(F)F)cc1)CN(Cc1ccccc1)c1ncc(-c2nc3ccncc3s2)s1 [Example 30, N—((S)-2-amino-3-(4-(trifluoromethyl)phenyl)propyl)-N-benzyl-5-(thiazolo[5,4-c]pyridin-2-yl)thiazol-2-amine]",50 to 1000
10,"N[C@H](CNc1ncc(-c2ccc3cnccc3c2)s1)Cc1c[nH]c2ccccc12 [Example 5, N—((S)-2-amino-3-(1H-indol-3-yl)propyl)-5-(isoquinolin-6-yl)thiazol-2-amine]",50 to 1000
11,"CC1C(=O)Nc2ccc(-c3cnc(NC[C@@H](N)Cc4ccc(C(F)(F)F)cc4)s3)cc21 (stereo partly drawn) [Example 47, 5-(2-((S)-2-amino-3-(4-(trifluoromethyl)phenyl)propylamino)thiazol-5-yl)-3-methylindolin-2-one]",50 to 1000
12,"CCOCc1nc(NC[C@@H](N)Cc2ccc(Cl)cc2)sc1-c1nc2ccncc2s1 [Example 77, N—((S)-2-amino-3-(4-chlorophenyl)propyl)-4-(ethoxymethyl)-5-(thiazolo[5,4-c]pyridin-2-yl)thiazol-2-amine]",50 to 1000
13,N[C@H](CNc1ncc(-c2ccc3cnccc3c2)s1)Cc1ccc(C(F)(F)F)nc1 [Example 170],< 50
14,"N[C@H](CNc1nc(C2CCCO2)c(-c2ccc3c(c2)CC(=O)N3)s1)Cc1ccc(Cl)cc1 (stereo partly drawn) [Example 197, 5-(2-((S)-2-Amino-3-(4-chlorophenyl)propylamino)-4-(tetrahydrofuran-2-yl)thiazol-5-yl)indolin-2-one]",1000 to 10000
15,"N[C@H](CNc1ncc(-c2ccc3[nH]c(=O)oc3c2)s1)Cc1ccc(Cl)s1 [Example 213, 6-(2-((S)-2-amino-3-(5-chlorothiophen-2-yl)propylamino)thiazol-5-yl)benzo[d]oxazol-2(3H)-one]",50 to 1000
16,"N[C@H](CNc1ncc(-c2ccc3c(c2)/C(=C\c2cnc[nH]2)C(=O)N3)s1)Cc1c[nH]c2ccccc12 (stereo in doubt) [Example 73, (E)-3-((1H-imidazol-5-yl)methylene)-6-(2-((S)-2-amino-3-(1H-indol-3-yl)propylamino)thiazol-5-yl)indolin-2-one ditrifluoroacetates]",50 to 1000
17,"N[C@H](CNc1nc(C#CC2(O)CCCC2)c(-c2ccc3cnccc3c2)s1)Cc1ccc(C(F)(F)F)cc1 [Example 148, 1-(2-(2-((S)-2-amino-3-(4-(trifluoromethyl)phenyl)propylamino)-5-(isoquinolin-6-yl)thiazol-4-yl)ethynyl)cyclopentanol]",50 to 1000
18,"NC(CNc1ncc(-c2ccc3[nH]c(=O)oc3c2)s1)Cc1ccc(C(F)(F)F)cc1F (stereo not drawn) [Example 178, 6-(2-(-2-amino-3-(2-fluoro-4-(trifluoromethyl)phenyl)propylamino)thiazol-5-yl)benzo[d]oxazol-2(3H)-one]",< 50
19,"N[C@H](CNc1ncc(-c2ccc3c(O)nncc3c2)s1)Cc1ccc(C(F)(F)F)cc1 [Example 65, 6-(2-((S)-2-amino-3-(4-(trifluoromethyl)phenyl)propylamino)thiazol-5-yl)phthalazin-1-ol]",50 to 1000
20,N[C@H](CNc1nc(C2CC2)c(-c2ccc3cnccc3c2)s1)Cc1ccc(C(F)(F)F)cc1 [Example 169],50 to 1000
21,"CNCc1nc(NC[C@@H](N)Cc2ccc(C(F)(F)F)cc2)sc1-c1ccc2cnccc2c1 [Example 56, N—((S)-2-amino-3-(4-(trifluoromethyl)phenyl)propyl)-5-(isoquinolin-6-yl)-4-((methylamino)methyl)thiazol-2-amine]",50 to 1000
22,"N[C@H](CNc1ncc(-c2ccc3[nH]c(=O)oc3c2)s1)Cc1ccc(Cl)c(Cl)c1 [Example 115, 6-(2-((S)-2-Amino-3-(3,4-dichlorophenyl)propylamino)thiazol-5-yl)benzo[d]oxazol-2(3H)-one]",< 50
23,"N[C@H](CNc1ncc(-c2ccc3[nH]c(=O)oc3c2)s1)[C@@H](CO)c1ccc(C(F)(F)F)cc1 [Example 160, 6-(2-((2S,3S)-2-amino-4-hydroxy-3-(4-(trifluoromethyl)phenyl)butylamino)thiazol-5-yl)benzo[d]oxazol-2(3H)-one]",< 50
24,"C[C@@H](Nc1ncc(-c2ccc3[nH]c(=O)oc3c2)s1)[C@@H](N)Cc1ccc(C(F)(F)F)cc1 [Example 231, 6-(2-((2R,3S)-3-amino-4-(4-(trifluoromethyl)phenyl)butan-2-ylamino)thiazol-5-yl)benzo[d]oxazol-2(3H)-one]",50 to 1000
25,"Nc1cc2cc(-c3cnc(NC[C@@H](N)Cc4ccc(Cl)cc4)s3)ccc2cn1 [Example 76, 6-(2-((S)-2-Amino-3-(4-chlorophenyl)propylamino)thiazol-5-yl)isoquinolin-3-amine]",< 50
26,"N[C@H](CNc1ncc(-c2ccc3c(c2)CCC(=O)N3)s1)Cc1ccc(C(F)(F)F)cc1 [Example 36, 6-(2-((S)-2-amino-3-(4-(trifluoromethyl)phenyl)propylamino)thiazol-5-yl)-3,4-dihydroquinolin-2(1H)-one]",1000 to 10000
27,"N[C@H](CNc1ncc(-c2ccc3cnccc3n2)s1)Cc1ccc(C(F)(F)F)cc1 [Example 68, N—((S)-2-amino-3-(4-(trifluoromethyl)phenyl)propyl)-5-(1,6-naphthyridin-2-yl)thiazol-2-amine]",< 50

# — US8084479B2, “Thiazole compounds and methods of use” (Amgen Inc., priority 2006, dated 2011)
